The values that follow come from US6900219B2, “ABCA-1 elevating compounds” (CV Therapeutics, Inc., priority 2002, dated 2005).

SMILES strings stand for the structures.

This test concerns ABCA-1 gene. Briefly: compounds tested and found to elevate cellular expression of the ABCA-1 gene (Examples 1-6; test not named). The test is classed as cell-based. As for the experimental part: Activity testing is conducted as described in those patents and patent applications referenced above, and in the Examples below, and by methods apparent to one skilled in the art.
As for `CCOC(=O)C1=C(NCCc2ccccc2)CCN(C(=O)c2ccc(Br)cc2)C1` [ethyl 1-[(4-bromophenyl)carbonyl]-4-[(2-phenylethyl)amino]-1,2,5,6-tetrahydropyridine-3-carboxylate], the “cellular expression of the ABCA-1 gene” value was “elevate cellular expression of the ABCA-1 gene”.

On to `Nc1c(C(=O)Oc2ccccc2)oc2nc3c(cc12)CCC3` [phenyl 3-amino-5,6,7-trihydrocyclopenta[1,2-b]furano[4,5-e]pyridine-2-carboxylate], for which the “cellular expression of the ABCA-1 gene” value is listed as “elevate cellular expression of the ABCA-1 gene”.

With `CC(C)(C)c1ccc(C(=O)Nc2nc(-c3ccc4ccccc4c3)cs2)cc1` [[4-(tert-butyl)phenyl]-N-(4-(2-naphthyl)(1,3-thiazol-2-yl))carboxamide], the “cellular expression of the ABCA-1 gene” value is listed as “elevate cellular expression of the ABCA-1 gene”.

Consider `COc1ccc(C(=O)NC2=NCCS2)cc1` [(4-methoxyphenyl)-N-(1,3-thiazolin-2-yl)carboxamide], for which the “cellular expression of the ABCA-1 gene” value was “elevate cellular expression of the ABCA-1 gene”.

With `O=C(NC1=NC(C(=O)O)CS1)c1ccc(Cl)c(Cl)c1` (stereo not shown) [2-[(3,4-dichlorophenyl)carbonylamino]-1,3-thiazoline-4-carboxylic acid], the “cellular expression of the ABCA-1 gene” value was “elevate cellular expression of the ABCA-1 gene”.

As for `O=C(Nc1nc(-c2ccc3ccccc3c2)cs1)c1cccc(C(F)(F)F)c1` [N-(4-(2-naphthyl)(1,3-thiazol-2-yl))[3-(trifluoromethyl)phenyl]carboxamide], the “cellular expression of the ABCA-1 gene” value was “elevate cellular expression of the ABCA-1 gene”.

On to `CCc1c(C(=O)NC(C)CCCN(CC)CC)cnn1-c1nc(-c2ccc(Br)cc2)cs1` (stereo not shown) [N-[4-(diethylamino)-1-methylbutyl]{1-[4-(4-bromophenyl)(1,3-thiazol-2-yl)]-5-ethylpyrazol-4-yl}carboxamide], for which the “cellular expression of the ABCA-1 gene” value is recorded as “elevate cellular expression of the ABCA-1 gene”.

As to `O=C(/C=C/c1ccccc1)NCCN(C(=O)Nc1cccc(C(F)(F)F)c1)c1ccccc1` [(2E)-3-phenyl-N-[2-(phenyl {N-[3-(trifluoromethyl)phenyl]carbamoyl}amino)ethyl]prop-2-enamide], the “cellular expression of the ABCA-1 gene” value is recorded as “elevate cellular expression of the ABCA-1 gene”.

In the case of `O=C(Nc1nc(-c2ccc(Cl)cc2)cs1)c1ccc(OC(F)(F)F)cc1` [N-[4-(4-chlorophenyl)(1,3-thiazol-2-yl)][4-(trifluoromethoxy)phenyl]carboxamide], the “cellular expression of the ABCA-1 gene” value is given as “elevate cellular expression of the ABCA-1 gene”.

On to `Cc1cccc(NC(=O)c2cc3ccccc3oc2=O)c1` [N-(3-methylphenyl)(2-oxochromen-3-yl)carboxamide], for which the “cellular expression of the ABCA-1 gene” value is “elevate cellular expression of the ABCA-1 gene”.

On to `O=C(Nc1nc2ccccc2s1)c1cccs1` [N-benzothiazol-2-yl-2-thienylcarboxamide], for which the “cellular expression of the ABCA-1 gene” value was “elevate cellular expression of the ABCA-1 gene”.

Regarding `O=C(Nc1ncc(-c2ccccc2)s1)c1ccccn1` [N-(5-phenyl(1,3-thiazol-2-yl))-2-pyridylcarboxamide], the “cellular expression of the ABCA-1 gene” value is “elevate cellular expression of the ABCA-1 gene”.

`CCCCN(CC(=O)N1CCc2ccccc2C1)C(=O)Nc1cccc(Cl)c1Cl` [N-(2,3-dichlorophenyl)[butyl(2-oxo-2-(2-1,2,3,4-tetrahydroisoquinolyl)ethyl)amino]carboxamide]: the “cellular expression of the ABCA-1 gene” value was “elevate cellular expression of the ABCA-1 gene”.

As to `O=C(Nc1ccc(Cl)cc1)c1ccccc1Cl` [(2-chlorophenyl)-N-(4-chlorophenyl)carboxamide], the “cellular expression of the ABCA-1 gene” value is given as “elevate cellular expression of the ABCA-1 gene”.

With `O=C1CSC(NC(=O)c2ccccc2C(F)(F)F)=N1` [(2-trifluoromethylphenyl)-N-(4-oxo(1,3-thiazolin-2-yl))carboxamide], the “cellular expression of the ABCA-1 gene” value is given as “elevate cellular expression of the ABCA-1 gene”.

For the compound `Cc1cccc(C)c1NC(=O)c1sc2ccccc2c1Cl` [N-(2,6-dimethylphenyl)(3-chlorobenzo[b]thiophen-2-yl)carboxamide], the “cellular expression of the ABCA-1 gene” value is “elevate cellular expression of the ABCA-1 gene”.

Regarding `Cc1ccc(NC(=O)Oc2ccc(C3=NCCS3)cc2)cc1` [N-(4-methylphenyl)(4-(1,3-thiazolin-2-yl)phenoxy)carboxamide], the “cellular expression of the ABCA-1 gene” value is listed as “elevate cellular expression of the ABCA-1 gene”.

On to `COc1cc2c(cc1NC(=O)C(C)(C)C)oc1ccccc12` [N-(2-methoxydibenzo[b,d]furan-3-yl)-2,2-dimethylpropanamide], for which the “cellular expression of the ABCA-1 gene” value is on record as “elevate cellular expression of the ABCA-1 gene”.

As for `CCCCN(Cc1ccc(OCc2ccccc2)cc1)C(=O)Nc1ccc(SC)cc1` [N-butyl[(4-thiomethylphenyl)amino]-N-{[4-(phenylmethoxy)phenyl]methyl}-carboxamide], the “cellular expression of the ABCA-1 gene” value is given as “elevate cellular expression of the ABCA-1 gene”.

As for `CC(C)c1ccc(NC(=O)N(Cc2ccco2)C(C)c2nc3ccccc3c(=O)n2-c2ccc(Cl)cc2)cc1` (stereo not shown) [N-{[3-(4-chlorophenyl)-4-oxo(3-hydroquinazolin-2-yl)]ethyl}-N-(2-furylmethyl){[4-(methylethyl)phenyl]amino}carboxamide], the “cellular expression of the ABCA-1 gene” value is recorded as “elevate cellular expression of the ABCA-1 gene”.

Consider `O=C(Nc1nc2ccccc2s1)c1cccc(F)c1` [N-benzothiazol-2-yl(3-fluorophenyl)carboxamide], for which the “cellular expression of the ABCA-1 gene” value is listed as “elevate cellular expression of the ABCA-1 gene”.

For the compound `O=C1CSC(NC(=O)c2ccc(OC(F)(F)F)cc2)=N1` [(4-trifluoromethoxyphenyl)-N-(4-oxo(1,3-thiazolin-2-yl))carboxamide], the “cellular expression of the ABCA-1 gene” value is recorded as “elevate cellular expression of the ABCA-1 gene”.

On to `O=C(c1ccc(Br)cc1)N(CCc1ccccc1)Cc1c2ccccc2cc2ccccc12` [N-(9-anthrylmethyl)(4-bromophenyl)-N-(2-phenylethyl)carboxamide], for which the “cellular expression of the ABCA-1 gene” value is listed as “elevate cellular expression of the ABCA-1 gene”.

With `CC(C)(C)NC(=O)Nc1nc2ccccc2s1` [N-benzothiazol-2-yl(tert-butylamino)carboxamide], the “cellular expression of the ABCA-1 gene” value is “elevate cellular expression of the ABCA-1 gene”.

On to `O=C(Nc1ccc(Br)cc1)c1sc2ccccc2c1Cl` [(3-chlorobenzo[b]thiophen-2-yl)-N-(4-bromophenyl)carboxamide], for which the “cellular expression of the ABCA-1 gene” value was “elevate cellular expression of the ABCA-1 gene”.

Take `CCc1c(C(=O)N2CCN(C(=O)c3cccc(Br)c3)C(C)C2)cnn1-c1nc(-c2ccc(Cl)cc2)cs1` (stereo not shown) [[4-(3-bromo-benzoyl)-3-methyl-piperazin-1-yl]-{1-[4-(4-chloro-phenyl)-thiazol-2-yl]-5-ethyl-1H-pyrazol-4-yl}-methanone]: the “cellular expression of the ABCA-1 gene” value was “elevate cellular expression of the ABCA-1 gene”.

On to `O=C(Nc1ncc(-c2ccccc2)s1)c1ccc(F)cc1F` [(2,4-difluorophenyl)-N-(5-phenyl(1,3-thiazol-2-yl)) carboxamide], for which the “cellular expression of the ABCA-1 gene” value is listed as “elevate cellular expression of the ABCA-1 gene”.

In the case of `O=c1oc(/C=C/c2ccc(Cl)cc2)nc2ccccc12` [2-[(1E)-2-(4-chlorophenyl)vinyl]benzo[d]1,3-oxazin-4-one], the “cellular expression of the ABCA-1 gene” value is recorded as “elevate cellular expression of the ABCA-1 gene”.
